Reference: patent publication US8674109B2, “Pesticidal compositions” (Dow AgroSciences, LLC., priority 2009, dated 2014)

Experiments:
Format in all cases: in vivo
[1] = system: beet armyworm (BAW; Spodoptera exigua: Lepidoptera); experiment: Insecticidal test for beet armyworm, 128-well diet tray assay
Procedure, shortened: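 Three to five second-instar larvae per well fed on artificial diet surface-treated with 50 μg/cm^2 compound (applied in 90:10 acetone-water, dried). Trays were held six days at 25 °C, 14:10 light-dark. Percent mortality was averaged across eight wells.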

[2] = system: green peach aphid (Myzus persicae); experiment: Insecticidal test for green peach aphid in foliar spray assay on cabbage seedlings
Procedure, shortened: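 Cabbage seedlings carrying 20-50 aphids (adults and nymphs) were sprayed to runoff with compound at 200 ppm in acetone/methanol diluted in 0.025% Tween 20, with four pots per treatment. After three days at about 25 °C and 40% RH, live aphids were counted. Percent control was Abbott-corrected against solvent-check plants.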

[3] = system: corn earworm (CEW; Helicoverpa zea: Lepidoptera); experiment: Insecticidal test for corn earworm, 128-well diet tray assay
Procedure, shortened: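 Second-instar larvae, three to five per well, placed on artificial diet treated with 50 μg/cm^2 compound applied in 90:10 acetone-water and dried. Held six days at 25° C., 14:10 light-dark. Percent mortality scored per well and averaged over eight wells.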

SMILES	% Mortality BAW 50 μg/cm^2 [1]	% Mortality GPA 200 ppm [2]	% Mortality CEW 50 μg/cm^2 [3]
C=CC(OC(=O)Nc1ccc(-c2ncn(-c3ccc(OC(F)(F)F)cc3)n2)cc1)c1ccccc1 (stereo not drawn) [Compound 70]	A (50-100)	B (Less than 80)	A (50-100)
CCCCC(OC(=O)Nc1ccc(-c2ncn(-c3ccc(OC(F)(F)F)cc3)n2)cc1)c1ccccc1 (stereo not drawn) [Compound 71]	A (50-100)	B (Less than 80)	A (50-100)
CC#CC(OC(=O)Nc1ccc(-c2ncn(-c3ccc(OC(F)(F)F)cc3)n2)cc1)c1ccccc1 (stereo not drawn) [Compound 72]	A (50-100)	B (Less than 80)	A (50-100)
CC(OC(=O)Nc1ccc(-c2ncn(-c3ccc(OC(F)(F)F)cc3)n2)cc1)c1c(Cl)cccc1Cl (stereo not drawn) [Compound 73]	A (50-100)	B (Less than 80)	A (50-100)
CCCC(OC(=O)Nc1ccc(-c2ncn(-c3ccc(OC(F)(F)F)cc3)n2)cc1)c1ccccc1 (stereo not drawn) [Compound 74]	A (50-100)	B (Less than 80)	A (50-100)
CC(OC(=O)Nc1ccc(-c2ncn(-c3ccc(OC(F)(F)F)cc3)n2)cc1)c1ccc(S(C)(=O)=O)cc1 (stereo not drawn) [Compound 75]	A (50-100)	B (Less than 80)	A (50-100)
CC(OC(=O)Nc1ccc(-c2ncn(-c3ccc(OC(F)(F)F)cc3)n2)cc1)c1cccs1 (stereo not drawn) [Compound 76]	A (50-100)	B (Less than 80)	A (50-100)
CC(OC(=O)Nc1ccc(-c2ncn(-c3ccc(OC(F)(F)F)cc3)n2)cc1)c1ccsc1 (stereo not drawn) [Compound 77]	A (50-100)	B (Less than 80)	A (50-100)
CC(C)CC(OC(=O)Nc1ccc(-c2ncn(-c3ccc(OC(F)(F)F)cc3)n2)cc1)c1ccccc1 (stereo not drawn) [Compound 78]	A (50-100)	B (Less than 80)	A (50-100)
CCC(OC(=O)Nc1ccc(-c2ncn(-c3ccc(OC(F)(F)F)cc3)n2)cc1)c1ccc(F)cc1 (stereo not drawn) [Compound 79]	A (50-100)	B (Less than 80)	A (50-100)
O=C(Nc1ccc(-c2ncn(-c3ccc(OC(F)(F)F)cc3)n2)cc1)OC(c1ccoc1)C(F)(F)F (stereo not drawn) [Compound 80]	A (50-100)	B (Less than 80)	A (50-100)
CC(OC(=O)Nc1ccc(-c2ncn(-c3ccc(OC(F)(F)F)cc3)n2)cc1)c1ccc(Cl)cc1 (stereo not drawn) [Compound 81]	A (50-100)	B (Less than 80)	A (50-100)
C#CC(OC(=O)Nc1ccc(-c2ncn(-c3ccc(OC(F)(F)F)cc3)n2)cc1)c1ccccc1 (stereo not drawn) [Compound 82]	A (50-100)	B (Less than 80)	A (50-100)
O=C(Nc1ccc(-c2ncn(-c3ccc(OC(F)(F)F)cc3)n2)cc1)OC(c1ccccc1)c1ccccc1 [Compound 83]	A (50-100)	B (Less than 80)	A (50-100)
CC(OC(=O)Nc1ccc(-c2ncn(-c3ccc(OC(F)(F)F)cc3)n2)cc1)c1ccc(F)cc1 (stereo not drawn) [Compound 84]	A (50-100)	B (Less than 80)	A (50-100)
CCC(OC(=O)Nc1ccc(-c2ncn(-c3ccc(OC(F)(F)F)cc3)n2)cc1)c1ccccc1 (stereo not drawn) [Compound 85]	A (50-100)	B (Less than 80)	A (50-100)
Cc1noc(C)c1C(C)OC(=O)Nc1ccc(-c2ncn(-c3ccc(OC(F)(F)F)cc3)n2)cc1 (stereo not drawn) [Compound 86]	A (50-100)	B (Less than 80)	A (50-100)
CC(C)OC(=O)Nc1ccc(-c2ncn(-c3ccc(OC(F)(F)F)cc3)n2)cc1 [Compound 87]	A (50-100)	B (Less than 80)	B (Less than 50)
O=C(Nc1ccc(-c2ncn(-c3ccc(OC(F)(F)F)cc3)n2)cc1)OC(c1ccccc1)C1CC1 (stereo not drawn) [Compound 88]	A (50-100)	B (Less than 80)	A (50-100)
Cc1cccc(C)c1C(C)OC(=O)Nc1ccc(-c2ncn(-c3ccc(OC(F)(F)F)cc3)n2)cc1 (stereo not drawn) [Compound 89]	A (50-100)	B (Less than 80)	A (50-100)
O=C(Nc1ccc(-c2ncn(-c3ccc(OC(F)(F)F)cc3)n2)cc1)OC(c1ccccc1)C(F)(F)F (stereo not drawn) [Compound 90]	A (50-100)	B (Less than 80)	A (50-100)
Cc1ccc(C(C)OC(=O)Nc2ccc(-c3ncn(-c4ccc(OC(F)(F)F)cc4)n3)cc2)cc1 (stereo not drawn) [Compound 91]	A (50-100)	B (Less than 80)	A (50-100)
Cc1cccc(C(C)OC(=O)Nc2ccc(-c3ncn(-c4ccc(OC(F)(F)F)cc4)n3)cc2)c1 (stereo not drawn) [Compound 92]	A (50-100)	B (Less than 80)	A (50-100)
Cc1ccccc1C(C)OC(=O)Nc1ccc(-c2ncn(-c3ccc(OC(F)(F)F)cc3)n2)cc1 (stereo not drawn) [Compound 93]	A (50-100)	B (Less than 80)	A (50-100)
Cc1ccc2c(c1)CC(C)C(OC(=O)Nc1ccc(-c3ncn(-c4ccc(OC(F)(F)F)cc4)n3)cc1)O2 (stereo not drawn) [Compound 94]	A (50-100)	B (Less than 80)	A (50-100)
O=C(Nc1ccc(-c2ncn(-c3ccc(OC(F)(F)F)cc3)n2)cc1)OC1CCc2ccccc2O1 (stereo not drawn) [Compound 95]	A (50-100)	B (Less than 80)	A (50-100)
CCC#CC(C)(C)OC(=O)Nc1ccc(-c2ncn(-c3ccc(OC(F)(F)F)cc3)n2)cc1 [Compound 96]	A (50-100)	B (Less than 80)	A (50-100)
COc1ccc(C(C)OC(=O)Nc2ccc(-c3ncn(-c4ccc(OC(F)(F)F)cc4)n3)cc2)cc1 (stereo not drawn) [Compound 97]	A (50-100)	B (Less than 80)	A (50-100)
CCOC(=O)Nc1ccc(-c2ncn(-c3ccc(OC(F)(F)F)cc3)n2)cc1 [Compound 98]	A (50-100)	B (Less than 80)	A (50-100)
CN(C)CC#CC(C)(C)OC(=O)Nc1ccc(-c2ncn(-c3ccc(OC(F)(F)F)cc3)n2)cc1 [Compound 99]	B (Less than 50)	B (Less than 80)	B (Less than 50)
